# Experimental data as given in patent US7381743B2, “Macrocycles for the treatment of cancer” (Leibniz-Institut Fuer Pflanzenbiochemie (IPB), priority 2003, dated 2008).
# Where two headings read alike, the source gives them in different places.
# Experiments:
# Assay type in all cases: cell-based
# MCF7 breast cancer = assay: Proliferation assay (acidic phosphatase), MCF7; settings: Homo sapiens, read-out: Proliferation assay GI50, IC-50, MCF7 breast cancer
# L 929 mouse fibroblasts = assay: Proliferation assay (acidic phosphatase), L 929; settings: L929, 120 h, read-out: Proliferation assay GI50, IC-50, L 929 mouse fibroblasts
# Method: (§1) Proliferation assay GI50: acidic phosphatase, incubation period 5 days, IC-50 (μM)
# A 549 lung cancer = assay: Proliferation assay (acidic phosphatase), A 549; settings: Homo sapiens, A549, 120 h, read-out: Proliferation assay GI50, IC-50, A 549 lung cancer
# Method: as §1
# [1] = acidic phosphatase, incubation period 5 days
smiles,measurement,setting,value
"C/C1=C/C[C@@H](/C(C)=C/c2csc(C)n2)OC(=O)CSC(C)(C)C(=O)[C@H](C)[C@@H](O)[C@@H](C)CCC1 [MC54690, (7R,8S,9S,13Z,16S)-8-hydroxy-5,5,7,9,13-pentamethyl-16-[(E)-1-methyl-2-(2-methyl-1,3-thiazol-4-yl)vinyl]-1-oxa-4-thiacyclohexadec-13-ene-2,6-dione]",IC50,"MCF7 breast cancer; MCF7, 120 h",45 nM
same,IC50,L 929 mouse fibroblasts,274 nM
same,IC50,A 549 lung cancer,9 nM
"C/C1=C/C[C@@H](/C(C)=C/c2cccc(C)n2)OC(=O)CSC(C)(C)C(=O)[C@H](C)[C@@H](O)/C(C)=C/CC1 [MC54849, (7R,8R,9E,13Z)-8-Hydroxy-5,5,7,9,13-pentamethyl-16-[(1E)-1-methyl-2-(6-methyl-pyridin-2-yl)-vinyl]-1-oxa-4-thia-cyclohexadec-9,13-dien-2,6-dion]",IC50,"MCF7 breast cancer; MCF7, 96 h",531 nM
"C/C1=C/C[C@@H](/C(C)=C/c2csc(C)n2)OC(=O)CS(=O)(=O)C(C)(C)C(=O)[C@H](C)[C@@H](O)[C@@H](C)CCC1 [MC-C5, (7R,8R,9S,13Z)-8-Hydroxy-5,5,7,9,13-pentamethyl-16-[(IE)-1-methyl-2-(2-methyl-thiazol-4-yl)-vinyl]-4,4-dioxo-1-oxa-4-thia-cyclohexadec-13-en-2,6-dion]",IC50,"MCF7 breast cancer; MCF7, 120 h",> 10000 nM
"CC(=O)O[C@H]1C(=O)[C@@]2(C)[C@H]([C@H](OC(=O)c3ccccc3)[C@]3(O)C[C@H](OC(=O)[C@H](O)[C@@H](NC(=O)c4ccccc4)c4ccccc4)C(C)=C1C3(C)C)[C@]1(OC(C)=O)CO[C@@H]1C[C@@H]2O [Taxol, Paclitaxel, reference compound]",IC50,"MCF7 breast cancer; MCF7, 120 h, acidic phosphatase, incubation period 5 days",3 nM
same,IC50,L 929 mouse fibroblasts; [1],270 nM
same,IC50,A 549 lung cancer; [1],6 nM
